The values below come from patent US20260263468A1 (Fundación Instituto de Investigación Sanitaria Fundación …, priority 2023, published 2026).

Several values for one entry are separate records, joined by “and”; a condition that tells them apart may be missing. Identical values can stand only once.

Data set [1] relates to C2C12 cells. Description: Cell proliferation assay (AlamarBlue). Conditions: 24 h after 2% HS addition, control 100±7.3%. It counts as cell-based. As for the experimental part:
C2C12 cells (American Type Culture Collection, ATCC, Manassas, VA, USA) were cultured in DMEM supplemented with 10% FBS and 1% penicillin-streptomycin. To induce myogenic differentiation, 70% confluence C2C12 cells were culture in DMEM containing 2% HS (horse serum). Cells were maintained in a humidified chamber at 37° C., in 95% air and 5% CO2. Media was replaced with fresh every 48h.
C2C12 cells were plated in 96-well plates (Corning, Cultek, Spain) (12.500 cells/well). Cell proliferation was measured using AlamarBlue assay according to the manufacturer's instructions, at 24 and 48 h of myogenic differentiation.
(In general: Resazurin is reduced to fluorescent resorufin, in cell work by metabolically active cells.)

Data set [2] concerns C2C12. Nature of the data set: Nucleotide concentration by HPLC during C2C12 differentiation. The format is cell-based.
Procedure: Supernatant and cell lysate are collected every day. Cells were lysated with a homemade buffer (1 mM phenylmethylsulfonyl fluoride, 1 mM protease inhibitor cocktail, 1 mM sodium orthovanadate, 1 mM sodium fluoride and 1 mM β-glicerophospate) and supernatant was used directly. A heat shock step was done at 98° C. for 2 min, and to avoid adenosine degradation 1 μM EHNA was added at the time of heating. All samples were centrifuged at 13000 g for 10 min at 4° C. and supernatants were collected and stored at −80° C. until use. Inosine, adenosine, AMP, ADP and ATP concentrations were determined with high performance liquid chromatography (HPLC) using a liquid chromatograph with a reversed phase column (Agilent 1100 Series Liquid Chromatography) and an UV detector set at 254 nm. Buffer composed of 0.1 mol/L KH2PO4 (pH 7.5) and 18% acetonitrile was run at 1.5 ml/min for 20 min. Compounds were identified and quantified by their retention times and peak areas of known standards, calibrated by spectrophotometry. […] The results have been corrected and expressed as mean±SEM. All results were calculated as a percentage of controls without differentiation state.
In data set [3] the test system is C2C12. Nature of the data set: Western blot of myogenesis markers during differentiation. It counts as cell-based. As for the experimental part:
(§1) Cells were lysed with RIPA buffer and protein concentration was determined by BCA. […] Variations in intensity were expressed as % of basal (day 0) and expressed as mean±SEM. All results were calculated as a percentage of non-differentiated controls to minimize the intrinsic variation among different experiments.
For orientation: In western blotting, separated proteins are transferred to a membrane and probed.

In data set [4] the test system is C2C12. Nature of the data set: Western blot of adenosine receptors, P2X7 and Panx-1 during differentiation. It counts as cell-based. As for the experimental part:
as §1
The expression of adenosine receptors, P2X7 receptor and Panx-1 channel was analyzed during myoblast differentiation.

For data set [5], the system named is C2C12. Nature of the data set: cAMP concentration (ELISA). It counts as cell-based. To be noted: myoblast, 1 μM, 5 minutes; control 0.58±0.13. As for the experimental part: CAMP concentration was measured using the colorimetric cAMP ELISA kit following manufacture protocol for acetylated cell lysates (Cell Biolabs, San Diego, USA). Absorbance was measured at 450 nm using a microplate reader Tecan Spark 20M.
The CAMP signaling cascade has been linked to a delay in the onset of age-related muscle loss.
Background: ELISA stands for enzyme-linked immunosorbent assay.

For data set [6], the system named is C2C12. Description: Western blot of PKA isoforms, pCREB, EPAC1/2. It counts as cell-based. On the procedure:
as §1
To study the CAMP signaling pathway, we analyzed the expression of PKA on its three catalytic isoforms PKAα, PKAβ and PKAγ as well as EPAC1/2. […] Tenofovir reduced its phosphorylation (154±9% tenofovir vs 247±30% control at day 4, p<0.05, FIG. 3B).

For data set [7], the system named is C2C12. Description: Western blot of phosphorylated AMPK. The format is cell-based. To be noted: 1 μM, day 4, vs basal. As for the experimental part: as §1
We next studied if these changes in AMP/ATP ratio had any effect in AMPK activation.

The subject of data set [8] is C2C12. Nature of the data set: AMPK phosphorylation assay kit (short time points). It counts as cell-based. To be noted: myoblast, 1 μM, 10 min after switching to 2% HS; control 1.97±0.17. As for the experimental part:
Assay was performed with the AMPK phosphorilation assay kit (Abnova Corporation, Jhouzih St, Taiwan) as manufactor instructions and pAMPK was measured at λex/em 530/585 nm and 360/450 nm for total protein with Tecan Infinite.

For data set [9] the following is noted: mice, tenofovir 75 mg/Kg/day; cited from earlier work.
The test system of data set [10] is C2C12 myobundles. Description: C2C12 3D myobundle with IL-6 ± dipyridamole. It counts as cell-based. To be noted: IL-6 2.5 μg/ml ± dipyridamole 1 μM, 14 days; Sham 890±39. The source says: C2C12 myobundles were fabricated following the protocol described by Bursac group (see references in ref. 44). Briefly, molds of polydimethylsiloxane (PDMS) designed for 12-well plates were created from Teflon masters with semicylindrical wells. These molds were sterilized, coated with 0.2% (w/v) Pluronic F-127 (Invitrogen) to prevent tissue adhesion, and paired with laser-cut Cerex frames (9×9 mm^2, 1-mm-wide rim) for myobundle attachment. The frames served as an anchor and guide during hydrogel compaction, ensuring uniaxial cell alignment. C2C12 cells were encapsulated in a hydrogel solution, including bovine fibrinogen (Sigma-Aldrich), matrigel (Corning), bovine thrombin (Sigma-Aldrich), and growth medium as concentration of bursac group indicates Referencias. The cell/hydrogel mixture was polymerized in the PDMS molds, and myobundles were cultured in a humidified chamber at 37° C., in 95% air and 5% CO2. After 4 days, the frames with myobundles were suspended in DM with treatments. DM and treatments are replaced every two days. GM and DM media contained 6-aminocaproic acid to reduce fibrinolysis. […] After the 14 days of treatment a bright-field photograph was taken to analyze the thickness of the fiber at its midpoint, and subsequently, they were embedded in OCT medium. […]

Data set [11] relates to C2C12 myoblast cell line. Description: Western blot of C2C12 under pro-inflammatory conditions with/without dipyridamole. To be noted: for PAX7 expression (vs 100% basal): IL-6 2.5 μg/ml, INFγ 1 μg/ml or LPS 10 μg/ml ± dipyridamole 1 μM, control 64.7±5%; for PAX7 expression (vs 100% basal) / AMPK activation / CREB activation / MHC expression (vs 100% basal) / PKAα expression: day 4; for A2BR expression / AMPK activation / CREB activation / MHC expression (vs 100% basal): cytokine/LPS ± dipyridamole 1 μM; for AMPK activation: control 222.7±23.9%; for CREB activation: control 353.7±45.15%; for MHC expression (vs 100% basal): control 757.6±85.7%; for PKAα expression: control 213.9±21.6%.
Procedure: Western blot was performed as described above.
Protein concentration was determined by BCA. 4 μg for cells and 40-50 μg for tissue samples of protein was subjected to 6-15% SDS-PAGE and transferred to a nitrocellulose membrane. Membranes were blocked with 3% BSA in Tris-buffered saline containing 0.1% Tween-20 (TBS-T). After that, the membranes were incubated overnight at 4° C. with the primary antibodies for A2A, A2B, MHC (Thermo Fisher Scientific, Waltham, USA), AMPK, pAMPK (Thr172), p21, p16 (Cell signaling, Danvers, EEUU) (1:1000 each) and Pax-7 (Developmental Studies Hybridoma Bank, Houston, EEUU) (1:500 each).

For the molecule `C[C@H](Cn1cnc2c(N)ncnc21)OCP(=O)(O)O` [tenofovir], the “Proliferation compared to control” value in [1] (1 μM) came out at 63.3±5%; in data set [1] (10 μM) it was 62.8±6.4%. Also, the “Intracellular ATP” value in data set [2] (1 μM each, day 1, control 4.93±0.02) was 11.56 ± 0.26 nM and 11.74 ± 0.08 nM. The “Intracellular AMP/ATP ratio” value in [2] (1 μM each, day 3, control 1.88±0.12) is 0.62±0.03. In [2] (1 μM each, day 4, control 14.7±0.5), the “Extracellular ATP” value was 10.67 ± 0.28 nM. In addition, the Intracellular adenosine result in data set [2] (1 μM, day 4, control 10.87±0.73) was “did not change”. In data set [2] (1 μM, day 4, control 11.07±0.54), the Intracellular inosine entry is given as “did not modulate”. The “Intracellular AMP” value in [2] (1 μM, day 4, control 12.10±0.73) worked out at 6.33 ± 0.35 nM. Moreover, in [2] (1 μM, day 4 of differentiation, control 11.6±0.81), the Extracellular adenosine came out at 6.65 ± 0.54 nM. The “MHC protein expression (% of basal)” value in [3] (1 μM each, day 1) is 1429±379% and 1153±131%. Further, the “PAX7 protein expression (% of basal)” value in data set [3] (1 μM, day 1, control 315±58%) worked out at 101±23%. For the same molecule, the “MyoD protein expression (% of basal)” value in data set [3] (1 μM, day 2, control 182±8%) is reported as 389±33%. The “Myf5 protein expression (% of basal)” value in [3] (1 μM, first 2 days of differentiation) was determined as 142±23%. The “Adenosine A2B receptor protein expression (% of basal)” value in [4] (1 μM each, day 4) worked out at 553±47%. The “A3 receptor protein expression” value in data set [4] (1 μM, compared to control) is reported as “did not change”. In addition, the “P2X7 protein expression (% of basal)” value in data set [4] (1 μM, day 4) is recorded as 89±19%. Also, the cAMP levels in [5] is 0.24±0.07. The “PKAα protein expression (% of basal)” value in data set [6] (1 μM each, day 4, control 292±65%) is 215±90% and 215.8±94.2%. The “pCREB (% of basal)” value in [6] (1 μM, day 4, control 247±30%) was 154±9%. The EPAC2 protein expression entry in data set [6] (1 μM, within differentiation) is listed as “maintained the expression similar to basal levels”. In addition, in data set [7], the “pAMPK (Western blot)” value was 1.15±0.05. The AMPK activation in data set [8] turned out to be 1.02±0.19. In data set [9], the Body weight lost is listed as ~10%.

B1: IL-6: pro-inflammatory cytokine used at 2.5 μg/ml on C2C12 (protein, UniProt P08505 25-211, looked up)
Interleukin-6: FPTSQVRRGDFTEDTTPNRPVYTTSQVGGLITHVLWEIVEMRKELCNGNSDCMNNDDALAENNLKLPEIQRNDGCYQTGYNQEICLLKISSGLLEYHSYLEYMKNNLKDNKKDKARVLQRDTETLIHIFNQEVKDLHKIVLPTPISNALLTDKLESQKEWLRTKTIQFILKSLEEFLKVTLRSTRQT
For the molecule B1, in data set [10], the Myobundle thickness came out at 616.3±22.9 μm. Besides, in data set [11], the “PAX7 expression (vs 100% basal)” value stood at 121±8%, the AMPK activation is listed as 80.9±5.8%, the CREB activation was determined as 163.4±19.26% and the “MHC expression (vs 100% basal)” value is 127.7±15.8%. In addition, in data set [11], the PKAα expression stood at 107±5.8%. The molecule further gave an A2BR expression in data set [11] (24 h, control 112.9±4.7%) of 75.8±2.2%. This molecule also yielded an A2BR expression in [11] (4 days, control 172.7±12.6%) of 67.6±3%.

B2: INFγ: pro-inflammatory cytokine used at 1 μg/ml on C2C12 (protein, UniProt P01580 23-155, looked up)
Interferon gamma: HGTVIESLESLNNYFNSSGIDVEEKSLFLDIWRNWQKDGDMKILQSQIISFYLRLFEVLKDNQAISNNISVIESHLITTFFSNSKAKKDAFMSIAKFEVNNPQVQRQAFNELIRVVHQLLPESSLRKRKRSRC
Take B2: in data set [11], the “PAX7 expression (vs 100% basal)” value worked out at 114±11%, the AMPK activation is 80.4±6.1%, the CREB activation is listed as 176.7±27.8% and the “MHC expression (vs 100% basal)” value worked out at 123.1±20.3%. In data set [11], the PKAα expression is recorded as 101.7±3.7%. For the same molecule, in [11] (24 h, control 112.9±4.7%), the A2BR expression was 69.3±1.9%. Further, the A2BR expression in data set [11] (4 days, control 172.7±12.6%) came to 66.03±20.3%.
